Patent publication US11213536B2, “Acylated compounds for the treatment of ocular pathologies” (CONSEJO SUPERIOR DE INVESTIGACIONES CIENTÍFICAS, priority 2016, dated 2022)
“Also recorded” adds a separate entry of the source.

Assays:
[1] = test system: SH-SY5Y neuroblastoma cell line; assay: Neuroprotection assay: SH-SY5Y viability (MTT) after H2O2 damage; type: cell-based; details: H2O2 100 μM, RES 10 μM, MTT 24 h
Description: The SH-SY5Y neuroblastoma cell line was cultured in petri dishes pre-treated with collagen (100 μg/ml) with F12 medium supplemented with penicillin/streptomycin and 10% inactivated fetal bovine serum.
(§1) Cell viability assays with neurons were prepared in 96-well plates pre-treated with collagen by seeding 20,000 cells/well in a volume of 100 μl and incubating the cells for 24 h before the addition of the compounds. The compounds to be tested were dissolved in DMSO and added in three different concentrations (1, 10 and 100 μM) in order to determine their toxicity. The final percentage of DMSO in each well was adjusted to 1%. The cell viability was evaluated 24 h after the addition of the compounds by means of the MTT assay according to the manufacturer's method. Mean values and standard deviations were calculated from at least 8 different measurements from several independent experiments.
Neuroprotection assays. […] The cell viability was evaluated 24 h after the addition of the compounds by means of the MTT assay according to the manufacturer's method. Mean values and standard deviations were calculated from at least 8 different measurements from several independent experiments. Neuronal recovery was calculated by normalizing the results of the neuronal viability experiments after the addition of our compounds and H2O2 to the positive control of each experiment (neurons+H2O2).

[2] = test system: RAW 264.7 macrophages; assay: Mitigation of LPS damage: RAW 264.7 macrophage viability (MTT); type: cell-based; details: LPS 100 ng/ml, RES 10 μM, MTT 24 h
Description: RAW 264.7 macrophages were cultured in P75 with high-glucose DMEm supplemented with penicillin/streptomycin and 10% inactivated fetal bovine serum.
as §1, with “The cell viability” for “Cell viability”, “with RAW macrophages” for “with neurons”, “plates” for “plates pre-treated with collagen”, “seeding 25,000” for “seeding 20,000”, “for 4” for “for 24”
Testing of mitigation of damage caused by the addition of LPS. The RAW 264.7 macrophages were cultured according to the procedure described above. […] The cell viability was evaluated 24 h after the addition of the compounds by means of the MTT assay according to the manufacturer's method. Mean values and standard deviations were calculated from at least 8 different measurements from several independent experiments.

[3] = test system: rd10 mouse; assay: rd10 mice retinal degeneration model, subretinal injection; type: in vivo; details: 5 mM subretinal
Description: The rd10 mouse is a model of retinitis pigmentosa due to a mutation in the Pde6b gene that results in the degeneration of the photoreceptors that begins on postnatal day 15-16 (P15-16) and is completed within one month (P30). In this model, the degeneration begins in the rods and then continues with cones and finally the retinal pigment epithelium (RPE). The degeneration in this model occurs as a consequence of the loss of the function of Pde6b, which ultimately leads to a continuous entry of Ca^++ in the […] with a significant production of reactive oxygen species (ROS), infiltration of macrophages, and activation of pro-apoptotic proteins. At the histological level, a loss of nuclei is observed in the outer nuclear layer of the retina (the layer in which photoreceptor nuclei are located), as well as the loss of the specific markers of rods (rhodopsin) and cones (opsin). The electroretinogram (ERG), which measures the electrical response of the retina to visual stimuli, is markedly affected in rd10 mice, with progressive loss of the amplitude of the a- and b-waves of the ERG. […] To evaluate the protective effect of our compounds on the retina, we first used the rd10 model. Rd10 homozygous mice were injected in the subretinal space at P13 (two to three days before the onset of degeneration) with 1 μl of vehicle (5% DMSO in PBS) or resveratrol RES (5 mM), as well as compound 2 (5 mM). Then, 15 days after having been injected, fundus, ERG, and histological changes were evaluated in the untreated mice, those treated with the vehicle, and those treated with RES and compound 2. […] The ERG in the treated mice was also evaluated 15 days after the injections. The amplitude of the a- and b-waves in the ERGs were quantified, and the statistical analysis was performed using two-way ANOVA and post hoc DMS. A value of p<0.05 was considered significant. […] Finally, the immunofluorescence study was performed in order to observe the presence of markers of rods (rhodopsin) and cones (opsin) (FIG. 10). The number of photoreceptor nuclei present in the outer nuclear layer (ONL), as well as the immunostaining of rhodopsin, was much greater in rd10 mice treated with compound 2 than in those treated with RES and in the controls.

| SMILES | recovery of cell viability [1] | recovery of cell viability [2] | amplitude of the a- and b-waves in ERG ([3]; 15 days) | thickness of the outer nuclear layer (ONL) ([3]; 15 days) | pigment accumulation in the fundus ([3]; 15 days after injection) | b-wave amplitude in dark-adapted ERG ([3]; 15 days, flash intensities 0.2, 1, 3 and 10 cd s/m^2) | labeling of rhodopsin and opsin ([3]; 15 days, immunofluorescence) | number of photoreceptor nuclei in the outer nuclear layer (ONL) and immunostaining of rhodopsin ([3]; 15 days, immunofluorescence) |
| --- | --- | --- | --- | --- | --- | --- | --- | --- |
| Oc1ccc(C=Cc2cc(O)cc(O)c2)cc1 [RES, resveratrol, reference compound] | up to 50% | up to 82% | – | – | – | – | – | – |
| CCCCCCCC(=O)OCC1OC(Oc2cc(O)cc(/C=C/c3ccc(O)cc3)c2)C(O)C(O)C1O [Compound 2, trans-resveratrol-3-O-(6′-O-octanoyl)-β-D-glucopyranoside] | – | – | preserved in the group treated with compound 2 in a greater proportion | greater than in the group treated with RES | absence of pigment; also recorded: lower amount of pigment accumulation | significantly increased; also recorded: significant increase | more intense | much greater |
